PMC5218480 (PLoS ONE, 2017)

System: MV-4-11 cells
Assay: Gene expression microarray analysis (Affymetrix PrimeView) and GSEA
Assay type: cell-based, human
Design: RFU PODN (11730768_x_at) / Fold change /veh PODN (11730768_x_at) / RFU LINC00158 (11744669_a_at) / Fold change /veh LINC00158 (11744669_a_at) / RFU DUSP10 (11751237_a_at) / Fold change /veh DUSP10 (11751237_a_at) / RFU ID3 (11757404_x_at) / Fold change /veh ID3 (11757404_x_at) / RFU PLEKHG5 (11737974_s_at) / Fold change /veh PLEKHG5 (11737974_s_at) / RFU LRRC4B (11730491_at) / Fold change /veh LRRC4B (11730491_at) / RFU GIMAP4 (11747438_a_at) / Fold change /veh GIMAP4 (11747438_a_at) / RFU KRT8 (11758183_x_at) / Fold change /veh KRT8 (11758183_x_at) / RFU CNN1 (11734310_a_at) / Fold change /veh CNN1 (11734310_a_at) / RFU VPS37D (11726825_at) / Fold change /veh VPS37D (11726825_at) / RFU C10orf10 (11716522_x_at) / Fold change /veh C10orf10 (11716522_x_at) / RFU KIR2DL2 /// KIR2DL4 /// KIR2DL5A /// KIR2DL5B /// KIR2DS1 /// KIR2DS2 /// KIR2DS3 /// KIR2DS4 /// KIR3DL3 /// KIR3DL3 /// KIR3DS1 (11738374_at) / Fold change /veh KIR2DL2 /// KIR2DL4 /// KIR2DL5A /// KIR2DL5B /// KIR2DS1 /// KIR2DS2 /// KIR2DS3 /// KIR2DS4 /// KIR3DL3 /// KIR3DL3 /// KIR3DS1 (11738374_at) / RFU C1QL1 (11718748_at) / Fold change /veh C1QL1 (11718748_at) / RFU TMPRSS4 (11747572_a_at) / Fold change /veh TMPRSS4 (11747572_a_at) / RFU HAMP (11756126_x_at) / Fold change /veh HAMP (11756126_x_at) / RFU RNFT2 (11725882_a_at) / Fold change /veh RNFT2 (11725882_a_at) / RFU NR4A2 (11747474_a_at) / Fold change /veh NR4A2 (11747474_a_at) / RFU ABCC12 (11746883_a_at) / Fold change /veh ABCC12 (11746883_a_at) / RFU TMEM136 (11760407_x_at) / Fold change /veh TMEM136 (11760407_x_at) / RFU CLDN22 /// WWC2 (11732394_at) / Fold change /veh CLDN22 /// WWC2 (11732394_at) / RFU HLA-DPB1 (11760878_x_at) / Fold change /veh HLA-DPB1 (11760878_x_at) / RFU SPINT1 (11716480_a_at) / Fold change /veh SPINT1 (11716480_a_at) / RFU GAP43 (11754022_s_at) / Fold change /veh GAP43 (11754022_s_at) / RFU A4GNT (11735810_at) / Fold change /veh A4GNT (11735810_at) / RFU PRB3 (11715151_x_at) / Fold change /veh PRB3 (11715151_x_at) / RFU TUBB4B (11761932_at) / Fold change /veh TUBB4B (11761932_at) / RFU CAPN14 (11732068_a_at) / Fold change /veh CAPN14 (11732068_a_at) / RFU TMCC2 (11721928_a_at) / Fold change /veh TMCC2 (11721928_a_at) / RFU IRGQ (11745062_a_at) / Fold change /veh IRGQ (11745062_a_at) / RFU FAM174B (11720279_a_at) / Fold change /veh FAM174B (11720279_a_at) / RFU TMPRSS4 (11748680_a_at) / Fold change /veh TMPRSS4 (11748680_a_at) / RFU FAM212B (11763350_a_at) / Fold change /veh FAM212B (11763350_a_at) / RFU PLEKHG5 (11743358_a_at) / Fold change /veh PLEKHG5 (11743358_a_at) / RFU ZSCAN30 (11745921_a_at) / Fold change /veh ZSCAN30 (11745921_a_at) / RFU CMKLR1 (11741424_a_at) / Fold change /veh CMKLR1 (11741424_a_at) / RFU LOC101060620 /// MAPK8IP1 (11723275_at) / Fold change /veh LOC101060620 /// MAPK8IP1 (11723275_at) / RFU SPTSSB (11747773_x_at) / Fold change /veh SPTSSB (11747773_x_at) / RFU PRSS12 (11739890_at) / Fold change /veh PRSS12 (11739890_at) / RFU BIN1 (11741810_x_at) / Fold change /veh BIN1 (11741810_x_at) / RFU WNT11 (11732464_a_at) / Fold change /veh WNT11 (11732464_a_at) / RFU C10orf10 (11716521_a_at) / Fold change /veh C10orf10 (11716521_a_at) / RFU C5orf56 (11738089_at) / Fold change /veh C5orf56 (11738089_at) / RFU CYB561 (11721691_x_at) / Fold change /veh CYB561 (11721691_x_at) / RFU ANKRD19P (11752326_a_at) / Fold change /veh ANKRD19P (11752326_a_at) / RFU OR2T12 /// OR2T33 /// OR2T8 (11738714_s_at) / Fold change /veh OR2T12 /// OR2T33 /// OR2T8 (11738714_s_at) / RFU VCAN (11748164_a_at) / Fold change /veh VCAN (11748164_a_at) / RFU JSRP1 (11732532_at) / Fold change /veh JSRP1 (11732532_at) / RFU KRTAP10-11 (11738290_x_at) / Fold change /veh KRTAP10-11 (11738290_x_at) / RFU MYO3A (11730013_a_at) / Fold change /veh MYO3A (11730013_a_at) / RFU EBF3 (11725865_a_at) / Fold change /veh EBF3 (11725865_a_at) / RFU CAMK2N1 (11719241_x_at) / Fold change /veh CAMK2N1 (11719241_x_at) / RFU C5orf56 (11738088_a_at) / Fold change /veh C5orf56 (11738088_a_at) / RFU OLFML3 (11715873_a_at) / Fold change /veh OLFML3 (11715873_a_at) / RFU LOC100653217 /// NTM (11731650_a_at) / Fold change /veh LOC100653217 /// NTM (11731650_a_at) / RFU MAPK11 (11762145_a_at) / Fold change /veh MAPK11 (11762145_a_at) / RFU FIZ1 (11724087_x_at) / Fold change /veh FIZ1 (11724087_x_at) / RFU OASL (11726364_x_at) / Fold change /veh OASL (11726364_x_at) / RFU SOX15 (11748057_x_at) / Fold change /veh SOX15 (11748057_x_at) / RFU CD79A (11719716_a_at) / Fold change /veh CD79A (11719716_a_at) / RFU HIST1H1D (11736915_at) / Fold change /veh HIST1H1D (11736915_at) / RFU CASKIN2 (11723855_a_at) / Fold change /veh CASKIN2 (11723855_a_at) / RFU LOC730098 (11760151_x_at) / Fold change /veh LOC730098 (11760151_x_at) / RFU OR4N2 (11742367_at) / Fold change /veh OR4N2 (11742367_at) / RFU PRRT2 (11749266_a_at) / Fold change /veh PRRT2 (11749266_a_at) / RFU SNX32 (11753110_a_at) / Fold change /veh SNX32 (11753110_a_at) / RFU CDHR5 (11726645_a_at) / Fold change /veh CDHR5 (11726645_a_at) / RFU RCAN1 (11760418_a_at) / Fold change /veh RCAN1 (11760418_a_at) / RFU FAM167A (11723789_a_at) / Fold change /veh FAM167A (11723789_a_at) / RFU FAM26E (11764081_at) / Fold change /veh FAM26E (11764081_at) / RFU ISYNA1 (11749810_s_at) / Fold change /veh ISYNA1 (11749810_s_at) / RFU ACY1 (11761880_at) / Fold change /veh ACY1 (11761880_at) / RFU 11764098_at / Fold change /veh 11764098_at / RFU SAMD14 (11745864_x_at) / Fold change /veh SAMD14 (11745864_x_at) / RFU NPB (11741838_a_at) / Fold change /veh NPB (11741838_a_at) / RFU TMPRSS6 (11731388_a_at) / Fold change /veh TMPRSS6 (11731388_a_at) / RFU KRTAP10-2 (11738614_at) / Fold change /veh KRTAP10-2 (11738614_at) / RFU ARHGAP8 /// PRR5-ARHGAP8 (11727945_x_at) / Fold change /veh ARHGAP8 /// PRR5-ARHGAP8 (11727945_x_at) / RFU KRTAP5-7 /// NADSYN1 (11734609_at) / Fold change /veh KRTAP5-7 /// NADSYN1 (11734609_at) / RFU RASL12 (11751679_a_at) / Fold change /veh RASL12 (11751679_a_at) / RFU CDKN2B (11736163_a_at) / Fold change /veh CDKN2B (11736163_a_at) / RFU PRF1 (11729649_at) / Fold change /veh PRF1 (11729649_at) / RFU, ZNF638 /// ZNF638-IT1 / Fold change vs veh, ZNF638 /// ZNF638-IT1 / RFU, PANK3 / Fold change vs veh, PANK3 / RFU, SH3YL1 / Fold change vs veh, SH3YL1 / RFU, ZEB2 / Fold change vs veh, ZEB2 / RFU, NRIP1 / Fold change vs veh, NRIP1 / RFU, PTTG1IP / Fold change vs veh, PTTG1IP / RFU, CAPN2 / Fold change vs veh, CAPN2 / RFU, MED14 / Fold change vs veh, MED14 / RFU, SNORA58 / Fold change vs veh, SNORA58 / RFU, C1orf63 / Fold change vs veh, C1orf63 / RFU, LRRFIP1 / Fold change vs veh, LRRFIP1 / RFU, NDUFAF7 / Fold change vs veh, NDUFAF7 / RFU, SLC12A2 / Fold change vs veh, SLC12A2 / RFU, IBTK / Fold change vs veh, IBTK / RFU, ESF1 / Fold change vs veh, ESF1 / Fold change vs veh, TMEM50B / RFU, TAOK1 / Fold change vs veh, TAOK1 / RFU, ACBD3 / Fold change vs veh, ACBD3 / RFU, TMA16 / Fold change vs veh, TMA16 / RFU, RWDD3 / Fold change vs veh, RWDD3 / RFU, BCAT1 / Fold change vs veh, BCAT1 / RFU, EDEM3 / Fold change vs veh, EDEM3 / RFU, TMEM33 / Fold change vs veh, TMEM33 / RFU, WDR75 / Fold change vs veh, WDR75 / RFU, AHCTF1 / Fold change vs veh, AHCTF1 / RFU, TFRC / Fold change vs veh, TFRC / RFU, ZDHHC17 / Fold change vs veh, ZDHHC17 / RFU, NOM1 / Fold change vs veh, NOM1 / RFU, ARL8B / Fold change vs veh, ARL8B / RFU, ZBTB11 / Fold change vs veh, ZBTB11 / RFU, TAMM41 / Fold change vs veh, TAMM41 / RFU, KIAA1704 /// LOC100996395 / Fold change vs veh, KIAA1704 /// LOC100996395 / RFU, ING1 / Fold change vs veh, ING1 / RFU, TRMT61B / Fold change vs veh, TRMT61B / RFU, FUBP3 / Fold change vs veh, FUBP3 / RFU, TP53 / Fold change vs veh, TP53 / RFU, TNKS2 / Fold change vs veh, TNKS2 / RFU, ZFP14 / Fold change vs veh, ZFP14 / RFU, ACTR2 / Fold change vs veh, ACTR2 / RFU, PPP3R1 / Fold change vs veh, PPP3R1 / RFU, PIK3R1 / Fold change vs veh, PIK3R1 / RFU, HNRNPA1 / Fold change vs veh, HNRNPA1 / RFU, RNF170 / Fold change vs veh, RNF170 / RFU, ZNF28 / Fold change vs veh, ZNF28 / RFU, RNGTT / Fold change vs veh, RNGTT / RFU, OGT / Fold change vs veh, OGT / RFU, BRD1 / Fold change vs veh, BRD1 / RFU, MARS / Fold change vs veh, MARS / RFU, ZNF655 / Fold change vs veh, ZNF655 / RFU, FAHD1 / Fold change vs veh, FAHD1 / RFU, BDP1 / Fold change vs veh, BDP1 / RFU, LRRCC1 / Fold change vs veh, LRRCC1 / RFU, ARID1A / Fold change vs veh, ARID1A / RFU, ZNF146 / Fold change vs veh, ZNF146 / RFU, ZNF330 / Fold change vs veh, ZNF330 / RFU, GPN3 / Fold change vs veh, GPN3 / RFU, C9orf123 / Fold change vs veh, C9orf123 / RFU, N4BP2L2 / Fold change vs veh, N4BP2L2 / RFU, ARFIP1 / Fold change vs veh, ARFIP1 / RFU, FAM179B / Fold change vs veh, FAM179B / RFU, BCL10 / Fold change vs veh, BCL10 / RFU, UHRF1BP1L / Fold change vs veh, UHRF1BP1L / RFU, BET1 / Fold change vs veh, BET1 / RFU, CNOT2 / Fold change vs veh, CNOT2 / RFU, ZNF268 / Fold change vs veh, ZNF268 / Fold change vs veh, ZNF507 / RFU, DGCR2 / Fold change vs veh, DGCR2 / RFU, WDSUB1 / Fold change vs veh, WDSUB1 / Fold change vs veh, HSP90B1 /// MIR3652 / RFU, ADSS / Fold change vs veh, ADSS / RFU, GK / Fold change vs veh, GK / RFU, ZNF148 / Fold change vs veh, ZNF148 / RFU, TAF9 / Fold change vs veh, TAF9 / RFU, SLC1A5 / Fold change vs veh, SLC1A5 / RFU, SLMO2 / Fold change vs veh, SLMO2 / RFU, ABCC4 / Fold change vs veh, ABCC4 / RFU, LOC101060439 /// RAP1B / Fold change vs veh, LOC101060439 /// RAP1B / RFU, RFX7 / Fold change vs veh, RFX7 / RFU, GTPBP10 / Fold change vs veh, GTPBP10 / RFU, CNEP1R1 / Fold change vs veh, CNEP1R1 / RFU, BIVM-ERCC5 /// ERCC5 / Fold change vs veh, BIVM-ERCC5 /// ERCC5 / RFU, ILF3 / Fold change vs veh, ILF3 / RFU 11762660_at / Fold change /veh 11762660_at / RFU VCAN (11757783_s_at) / Fold change /veh VCAN (11757783_s_at) / RFU DDX43 (11728927_at) / Fold change /veh DDX43 (11728927_at) / RFU KRT8 (11758188_x_at) / Fold change /veh KRT8 (11758188_x_at) / RFU NKD1 (11759106_at) / Fold change /veh NKD1 (11759106_at) / RFU SRD5A1 (11742802_a_at) / Fold change /veh SRD5A1 (11742802_a_at) / RFU TPSAB1 /// TPSB2 (11721975_s_at) / Fold change /veh TPSAB1 /// TPSB2 (11721975_s_at) / RFU GSTM3 (11746129_a_at) / Fold change /veh GSTM3 (11746129_a_at) / RFU IL23R (11737362_x_at) / Fold change /veh IL23R (11737362_x_at) / RFU TMEM51 (11727254_a_at) / Fold change /veh TMEM51 (11727254_a_at) / RFU PIWIL2 (11732686_x_at) / Fold change /veh PIWIL2 (11732686_x_at) / RFU ORM1 (11744905_x_at) / Fold change /veh ORM1 (11744905_x_at) / RFU CCDC152 (11743942_at) / Fold change /veh CCDC152 (11743942_at) / RFU ECM1 (11717891_a_at) / Fold change /veh ECM1 (11717891_a_at) / RFU IL23R (11748794_a_at) / Fold change /veh IL23R (11748794_a_at) / RFU TNFAIP8L3 (11732012_x_at) / Fold change /veh TNFAIP8L3 (11732012_x_at) / RFU MBOAT4 (11741988_at) / Fold change /veh MBOAT4 (11741988_at) / RFU 11764193_at / Fold change /veh 11764193_at / RFU TMEM53 (11763286_at) / Fold change /veh TMEM53 (11763286_at) / RFU MAGEB2 (11727129_at) / Fold change /veh MAGEB2 (11727129_at) / RFU TMEM200A (11744735_a_at) / Fold change /veh TMEM200A (11744735_a_at) / RFU CCDC152 (11751479_a_at) / Fold change /veh CCDC152 (11751479_a_at) / RFU FAM211A (11726209_a_at) / Fold change /veh FAM211A (11726209_a_at) / RFU RGS16 (11746705_a_at) / Fold change /veh RGS16 (11746705_a_at) / RFU VCAN (11755009_s_at) / Fold change /veh VCAN (11755009_s_at) / RFU RHOB (11743442_s_at) / Fold change /veh RHOB (11743442_s_at) / RFU RGS16 (11720943_a_at) / Fold change /veh RGS16 (11720943_a_at) / RFU RGS16 (11720944_at) / Fold change /veh RGS16 (11720944_at) / RFU, VPS4B / Fold change vs veh, VPS4B / RFU, CREB1 / Fold change vs veh, CREB1 / RFU, DNAJC13 / Fold change vs veh, DNAJC13 / RFU, GNAQ / Fold change vs veh, GNAQ / RFU, CDK5R1 / Fold change vs veh, CDK5R1 / RFU, ZRANB3 / Fold change vs veh, ZRANB3 / RFU, CUL4A / Fold change vs veh, CUL4A / RFU, CCNY / Fold change vs veh, CCNY / RFU, UFL1 / Fold change vs veh, UFL1 / RFU, COG3 / Fold change vs veh, COG3 / RFU, DIAPH2 / Fold change vs veh, DIAPH2 / RFU, SKA2 / Fold change vs veh, SKA2 / RFU, AFF3 / Fold change vs veh, AFF3 / RFU, LMF1 / Fold change vs veh, LMF1 / RFU, IPO11 / Fold change vs veh, IPO11 / RFU, DFFB / Fold change vs veh, DFFB / RFU, FOXP1 / Fold change vs veh, FOXP1 / RFU, CARD8 / Fold change vs veh, CARD8 / RFU, STRN3 / Fold change vs veh, STRN3 / RFU, ADK / Fold change vs veh, ADK / RFU, RASSF2 / Fold change vs veh, RASSF2 / RFU, WIPF1 / Fold change vs veh, WIPF1 / RFU, LARP1B / Fold change vs veh, LARP1B / RFU, RASA1 / Fold change vs veh, RASA1 / RFU, RB1 / Fold change vs veh, RB1 / RFU, PPFIA1 / Fold change vs veh, PPFIA1 / RFU, MAT2A / Fold change vs veh, MAT2A / RFU, CCT5 / Fold change vs veh, CCT5 / RFU, WDR92 / Fold change vs veh, WDR92 / RFU, CUX1 / Fold change vs veh, CUX1 / RFU, TTC7A / Fold change vs veh, TTC7A / RFU, TMEM135 / Fold change vs veh, TMEM135 / RFU, DEPTOR / Fold change vs veh, DEPTOR / RFU, CPM / Fold change vs veh, CPM / RFU, DNAJB6 / Fold change vs veh, DNAJB6 / RFU, CACNA2D3 / Fold change vs veh, CACNA2D3 / RFU, DTX4 / Fold change vs veh, DTX4 / RFU, TFCP2 / Fold change vs veh, TFCP2 / RFU, GMCL1 /// GMCL1P1 / Fold change vs veh, GMCL1 /// GMCL1P1 / RFU, AEBP2 / Fold change vs veh, AEBP2 / RFU, SNHG1 /// SNORD22 /// SNORD25 /// SNORD26 /// SNORD27 /// SNORD28 /// SNORD29 /// SNORD31 / Fold change vs veh, SNHG1 /// SNORD22 /// SNORD25 /// SNORD26 /// SNORD27 /// SNORD28 /// SNORD29 /// SNORD31 / Fold change (Aza/veh), C12orf56 (ProbeSet 11735607_a_at) / Fold change (ACY-1035/veh), C12orf56 (ProbeSet 11735607_a_at) / Fold change (Aza/veh), FGFR1OP (ProbeSet 11751329_s_at) / Fold change (ACY-1035/veh), FGFR1OP (ProbeSet 11751329_s_at) / Fold change (Aza/veh), VPS36 (ProbeSet 11739960_a_at) / Fold change (ACY-1035/veh), VPS36 (ProbeSet 11739960_a_at) / RFU SYPL1 (11715823_x_at) / Fold change /veh SYPL1 (11715823_x_at) / RFU IGFBP7 (11715501_s_at) / Fold change /veh IGFBP7 (11715501_s_at) / RFU REEP3 (11722064_at) / Fold change /veh REEP3 (11722064_at) / RFU IGLL1 (11728026_x_at) / Fold change /veh IGLL1 (11728026_x_at): dose or concentration left out as unconfirmed
Conditions: ProbeSet 11725787_a_at; LIST B

Nc1ncn([C@@H]2O[C@H](CO)[C@@H](O)[C@H]2O)c(=O)n1 [azacitidine]
Fold change vs veh, TMA16: 0.94
